Laboratory results as given in US11827917B1, “Methods for the conversion of fermentable sugars to ethanol” (Colorado State University Research Foundation, priority 2020, dated 2023).
Marks after values point to notes of the source that are not given here.

Legend:
Format in all cases: cell-based, Saccharomyces cerevisiae
[1] = test system: S. cerevisiae JAY 270; test: Serum-bottle cultivation in YPD: biomass, glycerol, ethanol yields; settings: for Biomass Yield / Biomass yield % change vs. control / EtOH yield / EtOH yield % change vs. control / Glycerol yield / Glycerol yield % change vs. control / Biomass yield vs. reference / Ethanol yield / Ethanol yield vs. reference / Glycerol yield vs. reference / OD600 / Effect on ethanol yield: YPD, serum bottles
Experimental: Procedure: Cultivations in serum bottles were used to determine the effect of the best-performing screened chemicals on the ethanol yield. S. cerevisiae JAY 270 was pre-cultured in 100 mL of YPD medium in 200-mL serum bottles overnight in a shaker at 30° C. and 200 rpm. The precultured yeast cells were collected and washed twice as described above. The cell pellet was resuspended in about 10 mL of 0.8% (w/v) NaCl and the cell concentration was estimated as OD600. TyrOH, PheOH, and TrpOH were added to 30 mL of YPD medium in 100-mL serum bottles at 0.05% and 0.2% respectively. The same amount of DMSO was added to YPD medium to serve as the control for TrpOH and TyrOH treatments. The bottles were inoculated with the prepared yeast cells to obtain an initial cell concentration of OD600=0.2. The serum bottles were sealed and cultured in a shaker at 30° C. and 200 rpm for 24 h. Each condition had three biological replicates.
(§1) Analytical methods: Cell growth was evaluated by monitoring OD600 and cell dry mass concentration. For dry mass measurements, 1.0 mL of culture was transferred to a pre-dried and pre-weighed 2-mL centrifuge tube. The tubes were centrifuged for 10 min at 14000 rpm using a microcentrifuge, and then the cell pellets were dried in an oven for 3 days at 65° C. The cell dry mass was determined by subtracting the initial tube mass from the dried mass of tube with cells. The concentrations of glucose, ethanol, and glycerol were measured via HPLC (Shimadzu LC20A series) outfitted with a refractive index detector and using an Aminex HPX-87H (300×7.8 mm) organic acid column and Cation H+ guard cartridge (Bio Rad Laboratories, Hercules, CA). The column was maintained at 65° C. and the mobile phase was 5 mM sulfuric acid with a flow rate of 0.6 mL/min. Standard compound solutions were used to calibrate the HPLC. Each sample was analyzed three times by HPLC.

[2] = test system: S. cerevisiae JAY 240; test: Serum-bottle cultivation in YPD, different yeast strains; settings: 0.2%; for DCW / DCW Δ vs. ref / OD600 / OD600 Δ vs. ref: S. cerevisiae JAY 240, YPD
Experimental: as §1
(§2) Procedure: Seven yeast strains (S. cerevisiae ATCC 26603, S. cerevisiae JAY 238, S. cerevisiae JAY 240, S. cerevisiae JAY 241, S. paradoxus JAY 1502, S. kudriavzezii JAY 1503, and S. mikatae JAY 1504) were pre-cultured in 30 mL of YPD medium in 100 mL serum bottle overnight in a shaker at 30° C. and 200 rpm. The precultured yeast cells of each strains were collected and washed twice. Finally, the cell pellet was resuspended in about 10 mL 0.8% (w/v) NaCl and the OD600 measured. TyrOH, PheOH, and TrpOH were added to 30 mL of YPD medium in 100-mL serum bottles at 0.2% (w/v) respectively. The same amount of DMSO was added in YPD medium and served as control to the TrpOH and TyrOH treatments. The prepared yeast cells were added to obtain the initial cell concentration at OD600=0.2. The serum bottles were sealed and cultured in a shaker at 30° C. and 200 rpm for 24 h. There were three biological replicates for each treatment.

[3] = test system: S. cerevisiae JAY 241; test: as above; settings: 0.2%
Experimental: as §1, §2

[4] = test system: S. cerevisiae JAY 238; test: as above; settings: 0.2%
Experimental: as §1, §2

[5] = test system: S. cerevisiae ATCC 26603; test: as above; settings: 0.2%; for DCW / DCW Δ vs. ref / OD600 / OD600 Δ vs. ref: S. cerevisiae ATCC 26603, YPD
Experimental: as §1, §2

[6] = S. cerevisiae JAY 240, YPD (Table 9B)
[7] = S. cerevisiae JAY 241, YPD (Table 9B)
[8] = S. cerevisiae JAY 238, YPD (Table 9B)
[9] = S. cerevisiae ATCC 26603, YPD (Table 9B)

## OCCc1ccccc1 [PheOH, 2-phenylethanol]
[1]; 0.05%
  Cell dry mass concentration, % of the control: 85%
  Biomass yield vs. reference: −10.8%
  Ethanol yield: 0.40 ± 0.00 g/g
  Ethanol yield vs. reference: 3.7%
  Glycerol yield: 0.031 ± 0.001 g/g
  Glycerol yield vs. reference: −4.6%
  OD600: 3.35
[1]; 0.05% (w/v)
  Biomass Yield: 0.088 + 0.001 g/g
  Biomass yield % change vs. control: −11* %
  EtOH yield: 0.40 ± 0.00 g/g
  EtOH yield % change vs. control: 3.7%
  Glycerol yield: 0.031 ± 0.001 g/g
  Glycerol yield % change vs. control: −4.6%
[1]; 0.2%
  Cell dry mass concentration, % of the control: 71%
  Effect on yeast cell growth: reduced yeast cell growth
  Biomass yield vs. reference: −35.3%
  Effect on ethanol yield: increased the ethanol yield significantly
  Ethanol yield: 0.41 ± 0.01 g/g
  Ethanol yield vs. reference: 6.2%
  Glycerol yield: 0.025 ± 0.001 g/g
  Glycerol yield vs. reference: −25.1%
  OD600: 2.44
[1]; 0.2% (w/v)
  Biomass Yield: 0.064 + 0.002 g/g
  Biomass yield % change vs. control: −35* %
  EtOH yield: 0.41 ± 0.01 g/g
  EtOH yield % change vs. control: 6.2* %
  Glycerol yield: 0.025 ± 0.001 g/g
  Glycerol yield % change vs. control: −25* %
[2]; S. cerevisiae JAY 240
  Biomass Yield: 0.060 ± 0.000 g/g
  Biomass yield % change vs. control: −19* %
  EtOH yield: 0.448 ± 0.018 g/g
  EtOH yield % change vs. control: +8.2* %
  Glycerol yield: 0.038 ± 0.002 g/g
  Glycerol yield % change vs. control: +2.2%
[2]
  DCW: 2.20 mg
  DCW Δ vs. ref: 78.6%
  OD600: 1.89
  OD600 Δ vs. ref: 72.2%
[2]; [6]
  Biomass Yield: 0.060 + 0.000 g/g
  Biomass yield Δ vs. ref: −19.1%
  Ethanol yield: 0.448 ± 0.018 g/g
  Ethanol yield Δ vs. ref: 8.2%
  Glycerol yield: 0.038 ± 0.002 g/g
  Glycerol yield Δ vs. ref: 2.20%
[3]; S. cerevisiae JAY 241
  Biomass Yield: 0.042 ± 0.001 g/g
  Biomass yield % change vs. control: −28* %
  EtOH yield: 0.399 ± 0.003 g/g
  Glycerol yield: 0.037 ± 0.002 g/g
  Glycerol yield % change vs. control: −31* %
[3]; S. cerevisiae JAY 241, YPD
  DCW: 2.10 mg
  DCW Δ vs. ref: 80.8%
  OD600: 1.45
  OD600 Δ vs. ref: 69.9%
[3]; [7]
  Biomass Yield: 0.042 + 0.001 g/g
  Biomass yield Δ vs. ref: −27.9%
  Ethanol yield: 0.399 ± 0.003 g/g
  Ethanol yield Δ vs. ref: 0.4%
  Glycerol yield: 0.037 ± 0.002 g/g
  Glycerol yield Δ vs. ref: −31.00%
[4]; S. cerevisiae JAY 238
  Biomass Yield: 0.059 ± 0.000 g/g
  Biomass yield % change vs. control: −19* %
  EtOH yield: 0.472 ± 0.017 g/g
  Glycerol yield: 0.041 ± 0.002 g/g
  Glycerol yield % change vs. control: −0.2%
[4]; S. cerevisiae JAY 238, YPD
  DCW: 2.00 mg
  DCW Δ vs. ref: 78.4%
  OD600 Δ vs. ref: 65.9%
[4]; [8]
  Biomass Yield: 0.059 + 0.000 g/g
  Biomass yield Δ vs. ref: −18.9%
  Ethanol yield: 0.472 ± 0.017 g/g
  Ethanol yield Δ vs. ref: 9.3%
  Glycerol yield: 0.041 ± 0.002 g/g
  Glycerol yield Δ vs. ref: −0.22%
[5]; S. cerevisiae ATCC 26603
  Biomass Yield: 0.052 ± 0.001 g/g
  Biomass yield % change vs. control: −22* %
  EtOH yield: 0.453 ± 0.006 g/g
  EtOH yield % change vs. control: +1.2%
  Glycerol yield: 0.054 ± 0.001 g/g
  Glycerol yield % change vs. control: −25* %
[5]
  DCW: 1.40 mg
  DCW Δ vs. ref: 76.4%
  OD600: 1.27
  OD600 Δ vs. ref: 85.6%
[5]; [9]
  Biomass Yield: 0.052 + 0.001 g/g
  Biomass yield Δ vs. ref: −22.3%
  Ethanol yield: 0.453 ± 0.006 g/g
  Ethanol yield Δ vs. ref: 1.2%
  Glycerol yield: 0.054 ± 0.001 g/g
  Glycerol yield Δ vs. ref: −25.07%

## OCCc1ccc(O)cc1 [TyrOH, Tyrosol]
[1]; 0.05% (w/v)
  Biomass Yield: 0.095 + 0.001 g/g
  Biomass yield % change vs. control: −5%
  EtOH yield: 0.38 ± 0.01 g/g
  EtOH yield % change vs. control: 0.8%
  Glycerol yield: 0.031 ± 0.001 g/g
  Glycerol yield % change vs. control: −9%
[1]; 0.05%
  Biomass yield vs. reference: −5.0%
  Ethanol yield: 0.38 ± 0.01 g/g
  Ethanol yield vs. reference: 0.8%
  Glycerol yield: 0.031 ± 0.001 g/g
  Glycerol yield vs. reference: −9.0%
  OD600: 3.66
[1]; 0.2%
  Effect on yeast cell growth: reduced yeast cell growth
  Biomass yield vs. reference: −15.3%
  Effect on ethanol yield: increased the ethanol yield significantly
  Ethanol yield: 0.40 ± 0.00 g/g
  Ethanol yield vs. reference: 6.9%
  Glycerol yield: 0.027 ± 0.000 g/g
  Glycerol yield vs. reference: −19.9%
  OD600: 3.27
[1]; 0.2% (w/v)
  Biomass Yield: 0.085 + 0.003 g/g
  Biomass yield % change vs. control: −15* %
  EtOH yield: 0.40 ± 0.00 g/g
  EtOH yield % change vs. control: 6.9* %
  Glycerol yield: 0.027 ± 0.000 g/g
  Glycerol yield % change vs. control: −20* %
[2]; S. cerevisiae JAY 240
  Biomass Yield: 0.061 ± 0.002 g/g
  Biomass yield % change vs. control: −16* %
  EtOH yield: 0.446 ± 0.022 g/g
  Glycerol yield: 0.034 ± 0.001 g/g
  Glycerol yield % change vs. control: −15* %
[2]
  DCW: 2.65 mg
  DCW Δ vs. ref: 86.9%
  OD600: 2.09
  OD600 Δ vs. ref: 83.9%
[2]; [6]
  Biomass Yield: 0.061 + 0.002 g/g
  Biomass yield Δ vs. ref: −15.7%
  Ethanol yield: 0.446 ± 0.022 g/g
  Ethanol yield Δ vs. ref: 10.1%
  Glycerol yield: 0.034 ± 0.001 g/g
  Glycerol yield Δ vs. ref: −14.77%
[3]; S. cerevisiae JAY 241
  Biomass Yield: 0.049 ± 0.000 g/g
  Biomass yield % change vs. control: −16* %
  EtOH yield: 0.422 ± 0.013 g/g
  Glycerol yield: 0.043 ± 0.000 g/g
  Glycerol yield % change vs. control: −23* %
[3]; S. cerevisiae JAY 241, YPD
  DCW Δ vs. ref: 88.7%
  OD600: 1.68
  OD600 Δ vs. ref: 84.0%
[3]; [7]
  Biomass Yield: 0.049 + 0.000 g/g
  Biomass yield Δ vs. ref: −15.7%
  Ethanol yield: 0.422 ± 0.013 g/g
  Ethanol yield Δ vs. ref: 10.4%
  Glycerol yield: 0.043 ± 0.000 g/g
  Glycerol yield Δ vs. ref: −23.39%
[4]; S. cerevisiae JAY 238
  Biomass Yield: 0.058 ± 0.001 g/g
  Biomass yield % change vs. control: −14* %
  EtOH yield: 0.455 ± 0.016 g/g
  EtOH yield % change vs. control: +8.3* %
  Glycerol yield: 0.036 ± 0.002 g/g
  Glycerol yield % change vs. control: −8.3%
[4]; S. cerevisiae JAY 238, YPD
  DCW: 2.35 mg
  DCW Δ vs. ref: 83.9%
  OD600: 1.99
  OD600 Δ vs. ref: 85.0%
[4]; [8]
  Biomass Yield: 0.058 + 0.001 g/g
  Biomass yield Δ vs. ref: −13.9%
  Ethanol yield: 0.455 ± 0.016 g/g
  Ethanol yield Δ vs. ref: 8.3%
  Glycerol yield: 0.036 ± 0.002 g/g
  Glycerol yield Δ vs. ref: −8.30%
[5]; S. cerevisiae ATCC 26603
  Biomass Yield: 0.056 ± 0.003 g/g
  Biomass yield % change vs. control: −21* %
  EtOH yield: 0.467 ± 0.015 g/g
  EtOH yield % change vs. control: +7.7* %
  Glycerol yield: 0.064 ± 0.006 g/g
  Glycerol yield % change vs. control: −12* %
[5]
  DCW: 1.53 mg
  DCW Δ vs. ref: 86.8%
  OD600: 1.34
  OD600 Δ vs. ref: 95.5%
[5]; [9]
  Biomass Yield: 0.056 + 0.003 g/g
  Biomass yield Δ vs. ref: −20.6%
  Ethanol yield: 0.467 ± 0.015 g/g
  Ethanol yield Δ vs. ref: 7.7%
  Glycerol yield: 0.064 ± 0.006 g/g
  Glycerol yield Δ vs. ref: −11.82%
